{"source": "patent US12226415B2", "about": "“Methods and compositions for the treatment of hair loss” (Aneira Pharma Inc., priority 2019, dated 2025)", "origin": "cited, not measured here", "key": {"human FP receptors": {"target": "human FP receptors (Homo sapiens, UniProt P43088)", "sequence (P43088 whole entry)": "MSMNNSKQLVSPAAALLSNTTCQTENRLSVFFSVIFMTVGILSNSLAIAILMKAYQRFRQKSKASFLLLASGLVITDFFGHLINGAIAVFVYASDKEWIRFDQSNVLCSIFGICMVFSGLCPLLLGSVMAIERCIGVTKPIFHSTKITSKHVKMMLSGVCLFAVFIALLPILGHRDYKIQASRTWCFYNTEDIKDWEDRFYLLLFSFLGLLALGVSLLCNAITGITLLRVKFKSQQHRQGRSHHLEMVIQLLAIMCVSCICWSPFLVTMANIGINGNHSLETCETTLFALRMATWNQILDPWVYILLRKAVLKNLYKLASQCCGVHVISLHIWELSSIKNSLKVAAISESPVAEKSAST"}, "hair growth": {"test_system": "hair growth", "conditions": "for hair growth: McCarey et al. 2004"}, "intraocular pressure": {"test_system": "intraocular pressure", "conditions": "glaucomatous monkey eyes, Gagliuso et al. 2004"}, "[1]": {"test_system": "elevated intraocular pressure", "conditions": "some human glaucoma patients non-responsive to latanoprost, Gandolfi 2003"}, "[2]": {"test_system": "production of dihydrotestosterone (DHT)", "conditions": "oral; including in the prostate gland and the scalp"}, "[3]": {"conditions": "propylene glycol, methanol, ethanol and 2-propanol"}}, "data": [{"smiles": "O=C(O)CCC/C=C\\C[C@@H]1[C@@H](CC[C@@H](O)CCc2ccccc2)[C@H](O)C[C@@H]1O", "note": "[Latanoprost free acid]", "values": [{"measurement": "potency relative to PGF2α", "setting": "human FP receptors", "value": "twice the potency of PGF2α"}]}, {"smiles": "CCCCCCCC(=O)CC[C@@H]1[C@@H](C/C=C\\CCCC(=O)OC(C)C)[C@@H](O)C[C@H]1O", "note": "[Uenoprostone isopropyl ester]", "values": [{"measurement": "hair growth", "setting": "hair growth", "value": "no hair growth"}, {"measurement": "incidence of iris pigmentation and eyelash changes", "setting": "hair growth; two randomized clinical trials, 0.15%", "value": "Low incidence"}]}, {"smiles": "CCNC(=O)CCC/C=C\\C[C@@H]1[C@@H](/C=C/[C@@H](O)CCc2ccccc2)[C@H](O)C[C@@H]1O", "note": "[bimatoprost]", "values": [{"measurement": "effect on elevated intraocular pressure in combination with latanoprost", "setting": "intraocular pressure", "value": "additive"}, {"measurement": "response in reducing elevated intraocular pressure", "setting": "[1]", "value": "responsive"}]}, {"smiles": "CC(C)(C)NC(=O)[C@H]1CC[C@H]2[C@@H]3CC[C@H]4NC(=O)C=C[C@]4(C)[C@H]3CC[C@]12C", "note": "[finasteride, (1S,3aS,3bS,5aR,9aR,9bS,11aS)—N-tert-butyl-9a,11a-dimethyl-7-oxo-1,2,3,3a,3b,4,5,5a,6,9b,10,11-dodecahydroindeno[5,4-f]quinoline-1-carboxamide]", "values": [{"measurement": "decrease of production of dihydrotestosterone (DHT)", "setting": "[2]", "value": "about 70%"}]}, {"smiles": "CC(C)OC(=O)CCC/C=C\\C[C@@H]1[C@@H](CC[C@@H](O)CCc2ccccc2)[C@H](O)C[C@@H]1O", "note": "[latanoprost, isopropyl ester of 17-phenyl-13,14-dihydro prostaglandin F2a]", "values": [{"measurement": "solubility (concentration that can be obtained)", "setting": "[3]", "value": "≥ 5", "unit": "%"}]}, {"smiles": "CCCCCCCC(=O)CC[C@@H]1[C@@H](C/C=C\\CCCC(=O)O)[C@@H](O)C[C@H]1O", "note": "[uenoprostone free acid]", "values": [{"measurement": "hair growth", "setting": "hair growth", "value": "no hair growth"}]}]}
